Like-named read-outs stand apart in the source and are kept apart here.
Experiments:
Format in all cases: cell-based
[1] = test system: AGS gastric cancer cell line (KRAS G12D mutation); assay: Proliferation inhibition measured by CTG (CellTiter Glo), AGS; settings: CTG, 120 hours incubation
Description: (§1) NCI-H358 is a human non-small cell lung cancer cell line with KRAS G12C mutation; PANC-1 and AsPC-1 are pancreatic cancer cell lines with KRAS G12D mutation; AGS is a gastric cancer cell line with KRAS G12D mutation; A427 is a lung cancer cell line with KRAS G12D mutation; THP-1 is a leukemia cell line with NRAS G12D mutation; Hs 578T is a breast cancer cell line with HRAS G12D mutation; SW480 is a colon cancer cell lines with KRAS G12V mutation; A375 is a wild type malignant melanoma cell line. The proliferation inhibitory effect of the compounds on various mutations was evaluated by determining the proliferation inhibitory activity of the compounds on these cell lines.
(§2) The assay was conducted on either 384-well plates or 96-well plates. The procedures are as follows:
(§3) The cell suspensions were added to 384- or 96-well plates (384-well plate: 40 μL; 96-well plate: […]) except for peripheral wells. The plates were incubated in a carbon dioxide incubator overnight. Prepared compounds (10 concentration gradients by serial 3-fold dilution) were added to the wells. The cell plates were incubated in a carbon dioxide incubator for 120 hours. CellTiter Glo reagent (384 well plate: 25 μL; 96 well plate: 100 μL) was added to the 384- or 96-well plates. The plates were shaken for 10 minutes away from light, and incubated for 10 minutes. The plates were read by EnVision system. Inhibition curves were plotted using XLFit and IC50 values were calculated. “IC50>10 μM” is denoted by “*”, “10 μM≥IC50>1 μM” is denoted by “**”, “1 μM≥IC50>100 nM” is denoted by “***”, and “IC50≤100 nM” is denoted by “****”.

[2] = test system: A375 wild type malignant melanoma cell line; assay: Proliferation inhibition measured by CTG (CellTiter Glo), A375; settings: Homo sapiens, A-375, CTG, 120 hours incubation
Description: as §1, §2, §3

[3] = test system: NCI-H358 cells (KRAS G12C mutation); assay: Proliferation inhibition measured by CTG (CellTiter Glo), NCI-H358; settings: Homo sapiens, 120 hours incubation
Description: as §1, §2, §3

[4] = test system: SW480 colon cancer cell line (KRAS G12V mutation); assay: Proliferation inhibition measured by CTG (CellTiter Glo), SW480; settings: Homo sapiens
Description: as §1, §2, §3

[5] = Table 2, read-out: IC50 AGS (G12D)
[6] = Table 2, read-out: IC50 A375 (wide type)
[7] = Table 2, CTG, read-out: IC50 H358 (G12C)
[8] = Table 1, class symbol, read-out: IC50 (AGS)
[9] = Table 1, class symbol, read-out: IC50 (A375)
[10] = Table 1, CTG, class symbol, read-out: IC50 (H358)
[11] = Table 3, class symbol, read-out: IC50 (AGS)
[12] = Table 3, CTG, class symbol, read-out: IC50 (H358)
[13] = Table 3, 120 hours incubation, class symbol, read-out: IC50 (SW480)
[14] = Table 3, class symbol, read-out: IC50 (A375)

SMILES	IC50 [1, 11] [nM]	IC50 [3, 12] [nM]	IC50 [4, 13] [nM]	IC50 [2, 14] [nM]	also measured
C=Cc1ncc2n1CCN(c1nc(OC[C@@H]3CCCN3C)nc3c1CCN(c1cccc4cccc(Cl)c14)C3)C2 [Comparative compound 2′, reference compound]	–	–	–	–	IC50 [1, 5]: 1480 nM; IC50 [2, 6]: 1610 nM; IC50 [3, 7]: 1230 nM
C=Cc1ncc2n1CCN(c1nc(OC[C@@H]3CCCN3C)nc3c1CCN(c1cccc4ccccc14)C3)C2 [Comparative compound 3′, reference compound]	–	–	–	–	IC50 [1, 5]: 1180 nM; IC50 [2, 6]: 1500 nM; IC50 [3, 7]: 1040 nM
CN1CCC[C@H]1COc1nc2c(c(N3CCn4cnc(C5CC5)c4C3)n1)CCN(c1cccc3cccc(Cl)c13)C2 [Compound 40]	–	–	–	–	IC50 [1, 8]: 100 to 1000 nM; IC50 [2, 9]: 100 to 1000 nM; IC50 [3, 10]: 100 to 1000 nM
Cc1ncn2c1CN(c1nc(OC[C@@H]3CCCN3C)nc3c1CCN(c1cccc4cccc(Cl)c14)C3)CC2 [Compound 41]	–	–	–	–	IC50 [1, 8]: ≤ 100 nM; IC50 [2, 9]: 100 to 1000 nM; IC50 [3, 10]: 100 to 1000 nM
CN1CCC[C@H]1COc1nc2c(c(N3CCn4cncc4C3)n1)CCN(c1cc(O)cc3ccccc13)C2 [Compound 43]	100 to 1000	100 to 1000	–	–	–
C[C@@H]1Cn2cncc2CN1c1nc(OC[C@@H]2CCCN2C)nc2c1CCN(c1cccc3cccc(Cl)c13)C2 [Compound 44]	≤ 100	≤ 100	≤ 100	≤ 100	IC50 [1, 5]: 24 nM; IC50 ([4]; Table 2, 120 hours incubation, read-out: IC50 SW480 (G12V)): 25 nM; IC50 [2, 6]: 36 nM; IC50 [3, 7]: 33 nM
CN1CCC[C@H]1COc1nc2c(c(N3CCn4c(cnc4Br)C3)n1)CCN(c1cccc3cccc(Cl)c13)C2 [Compound 49]	100 to 1000	100 to 1000	1000 to 10000	1000 to 10000	–
CN1CCC[C@H]1COc1nc2c(c(N3CCn4c(cnc4-c4ccccc4)C3)n1)CCN(c1cccc3cccc(Cl)c13)C2 [Compound 50]	1000 to 10000	1000 to 10000	1000 to 10000	1000 to 10000	–
CN1CCC[C@H]1COc1nc2c(c(N3CCn4cnc(C(N)=O)c4C3)n1)CCN(c1cccc3cccc(Cl)c13)C2 [Compound 52]	100 to 1000	100 to 1000	1000 to 10000	1000 to 10000	–
CN1CCC[C@H]1COc1nc2c(c(N3CCn4c(cnc4C4CC4)C3)n1)CCN(c1cccc3cccc(Cl)c13)C2 [Compound 53]	1000 to 10000	1000 to 10000	1000 to 10000	1000 to 10000	–
C[C@@H]1Cn2cncc2CN1c1nc(O[C@@H]2CCN(C)C2)nc2c1CCN(c1cccc3cccc(Cl)c13)C2 [Compound 57]	≤ 100	≤ 100	≤ 100	100 to 1000	–
C[C@@H]1Cn2cncc2CN1c1nc(OC[C@H]2CCCN2C)nc2c1CCN(c1cccc3cccc(Cl)c13)C2 [Compound 58]	≤ 100	≤ 100	≤ 100	100 to 1000	–
C[C@@H]1Cn2cncc2CN1c1nc(O[C@@H]2CCCN(C)C2)nc2c1CCN(c1cccc3cccc(Cl)c13)C2 [Compound 60]	100 to 1000	100 to 1000	100 to 1000	1000 to 10000	–
CCN1CCC[C@H]1COc1nc2c(c(N3Cc4cncn4C[C@H]3C)n1)CCN(c1cccc3cccc(Cl)c13)C2 [Compound 63]	≤ 100	≤ 100	≤ 100	100 to 1000	–
C[C@@H]1Cn2cncc2CN1c1nc(OC[C@@H]2CCCCN2C)nc2c1CCN(c1cccc3cccc(Cl)c13)C2 [Compound 64]	≤ 100	≤ 100	≤ 100	≤ 100	–
C[C@@H]1Cn2cncc2CN1c1nc(OC[C@@H]2CCCN2C)nc2c1CCN(c1cc(O)cc3ccccc13)C2 [Compound 66]	≤ 100	≤ 100	100 to 1000	100 to 1000	–

SMILES	IC50 [1, 11] [nM]	IC50 [3, 12] [nM]	IC50 [4, 13] [nM]	IC50 [2, 14] [nM]	also measured
C[C@@H]1Cn2cncc2CN1c1nc(OC[C@@H]2CCCN2C)nc2c1CCN(c1cccc3ccccc13)C2 [Compound 68]	≤ 100	≤ 100	≤ 100	100 to 1000	–
C[C@@H]1Cn2cncc2CN1c1nc(O[C@H]2CCN(C)C2)nc2c1CCN(c1cccc3cccc(Cl)c13)C2 [Compound 71]	100 to 1000	100 to 1000	100 to 1000	1000 to 10000	–
C[C@@H]1Cn2cncc2CN1c1nc(OC2CN(C)C2)nc2c1CCN(c1cccc3cccc(Cl)c13)C2 [Compound 74]	100 to 1000	100 to 1000	100 to 1000	1000 to 10000	–
[2H]C([2H])([2H])N1CCC[C@H]1COc1nc2c(c(N3Cc4cncn4C[C@H]3C)n1)CCN(c1cccc3cccc(Cl)c13)C2 [Compound 77]	≤ 100	≤ 100	≤ 100	≤ 100	–
C[C@@H]1Cn2cnc(F)c2CN1c1nc(OC[C@@H]2CCCN2C)nc2c1CCN(c1cc(O)cc3cccc(Cl)c13)C2 [Compound 78]	≤ 100	≤ 100	≤ 100	≤ 100	–
C[C@@H]1Cn2cncc2CN1c1nc(OC[C@@H]2CCCN2C)nc2c1CCN(c1cc(OC(=O)C(C)(C)C)cc3cccc(Cl)c13)C2 [Compound 79]	≤ 100	–	≤ 100	≤ 100	–
C[C@@H]1Cn2cncc2CN1c1nc(OC[C@@H]2CCCN2C)nc2c1CCN(c1cc(OC(=O)N(C)C)cc3cccc(Cl)c13)C2 [Compound 82]	≤ 100	100 to 1000	100 to 1000	100 to 1000	–
C[C@@H]1Cn2cncc2CN1c1nc(OC[C@@H]2CCCN2C)nc2c1CCN(c1cccc3cccnc13)C2 [Compound 83]	≤ 100	≤ 100	≤ 100	100 to 1000	–
C[C@@H]1Cn2cncc2CN1c1nc(OC[C@@H]2CCCN2C)nc2c1CCN(c1cccc3c1CCCC3)C2 [Compound 84]	100 to 1000	1000 to 10000	100 to 1000	1000 to 10000	–
COc1cc(N2CCc3c(nc(OC[C@@H]4CCCN4C)nc3N3Cc4cncn4C[C@H]3C)C2)c2c(Cl)cccc2c1 [Compound 85]	100 to 1000	100 to 1000	100 to 1000	1000 to 10000	–
C[C@@H]1Cn2cnc(Cl)c2CN1c1nc(OCC2CCCN2C)nc2c1CCN(c1cccc3cccc(Cl)c13)C2 (stereo partly drawn) [Compound 86]	≤ 100	≤ 100	≤ 100	≤ 100	–
C[C@@H]1Cn2cnc(F)c2CN1c1nc(OC[C@@H]2CCCN2C)nc2cc(-c3cccc4cccc(Cl)c34)ccc12 [Compound 88]	≤ 100	≤ 100	≤ 100	100 to 1000	–
C[C@@H]1Cn2cnc(F)c2CN1c1nc(OC[C@@H]2CCCN2C)nc2cc(-c3cc(O)cc4cccc(Cl)c34)ccc12 [Compound 91]	≤ 100	≤ 100	≤ 100	≤ 100	–
C[C@@H]1Cn2cnc(F)c2CN1c1nc(OC[C@@H]2CCCN2C)nc2cc(-c3cc(OC(=O)C(C)(C)C)cc4cccc(Cl)c34)ccc12 [Compound 92]	≤ 100	≤ 100	≤ 100	≤ 100	–
C[C@@H]1Cn2cnc(F)c2CN1c1nc(OC[C@@H]2CCCN2C)nc2c1CCN(c1cc(OC(=O)C(C)(C)C)cc3cccc(Cl)c13)C2 [Compound 96]	≤ 100	–	≤ 100	–	–
C[C@@H]1Cn2cnc(F)c2CN1c1nc(OC[C@@H]2CCCN2C)nc2c1CCN(c1cc(OC(=O)N(C)C)cc3cccc(Cl)c13)C2 [Compound 97]	≤ 100	≤ 100	≤ 100	100 to 1000	–
